Results: patent US20100210597A1, “C21-Deoxy Ansamycin Derivatives as Antitumor Agents” (priority 2007, published 2010)
Read-outs that look alike come from different tables or passages of the source.

Legend:
[1] = tested on: panel of human tumour cell lines; test: Monolayer proliferation assay, mean across cell line panel; format: cell-based; conditions: geometric mean of all replicates across six cell lines
Procedure: (§1) In vitro evaluation of compounds for anticancer activity in a panel of human tumour cell lines in a monolayer proliferation assay was carried out at the Oncotest Testing Facility, Institute for Experimental Oncology, Oncotest GmbH, Freiburg.
(§2) The Oncotest cell lines are established from human tumor xenografts as described by Roth et al., (1999). The origin of the donor xenografts is described by Fiebig et al., (1999). Other cell lines are either obtained from the NCl (DU145, MCF-7) or purchased from DSMZ, Braunschweig, Germany.
(§3) All cell lines, unless otherwise specified, are grown at 37° C. in a humidified atmosphere (95% air, 5% CO2) in a ‘ready-mix’ medium containing RPMI 1640 medium, 10% fetal calf serum, and 0.1 mg/mL gentamicin (PAA, Cölbe, Germany).
(§4) A modified propidium iodide assay was used to assess the effects of the test compound(s) on the growth of six human tumour cell lines (Dengler et al., (1995)).
Briefly, cells are harvested from exponential phase cultures by trypsinization, counted and plated in 96 well flat-bottomed microtitre plates at a cell density dependent on the cell line (5-10.000 viable cells/well). […] After thawing the plates, fluorescence was measured using the Cytofluor 4000 microplate reader (excitation 530 nm, emission 620 nm), giving a direct relationship to the total number of viable cells.
Growth inhibition is expressed as treated/control×100 (% T/C). […]

MCF-7 = test: Monolayer proliferation assay (modified propidium iodide), MCF-7; format: cell-based, human; conditions: average of 2 experiments
Procedure: as §1, §2, §3, §4
(§5) Briefly, cells are harvested from exponential phase cultures by trypsinization, counted and plated in 96 well flat-bottomed microtitre plates at a cell density dependent on the cell line (5-10.000 viable cells/well). After 24 h recovery to allow the cells to resume exponential growth, 0.010 mL of culture medium (6 control wells per plate) or culture medium containing macbecin were added to the wells. Each concentration is plated in triplicate. Compounds were applied in two concentrations (0.001 mM and 0.01 mM). Following 4 days of continuous exposure, cell culture medium with or without test compound was replaced by 0.2 mL of an aqueous propidium iodide (P1) solution (7 mg/L). To measure the proportion of living cells, cells were permeabilized by freezing the plates. After thawing the plates, fluorescence was measured using the Cytofluor 4000 microplate reader (excitation 530 nm, emission 620 nm), giving a direct relationship to the total number of viable cells.
(§6) Growth inhibition is expressed as treated/control×100 (% T/C).
(§7) In vitro evaluation of the test compound, 20, for anticancer activity in a panel of human tumour cell lines in a monolayer proliferation assay was carried out as described in the general methods using a modified propidium iodide assay.

[2] = In vitro Caco-2 assay for cell permeability; format: in vitro ADME; conditions: human, Caco-2, pH 7.4, 10 uM, 2 hour incubation
Procedure: (§8) Caco-2 cells (ATCC Cat. # HTB-37) were grown on fibrillar collagen-coated, microporous, polycarbonate membranes in 24-well BioCaot™ insert plates. Following 5-day growth in Eagle's minimum essential medium supplemented with 10% FBS, the cells were exposed to BioCoat Enterocyte Differentiation Medium (BD, Cat. # 05496) for 2 days to induce enterocytic differentiation. Prior to dosing, the transepithelial electric resistance (TEER) of the Caco-2 cells in each well was measured to ensure the quality of the monolayers.
(§9) The stock solutions of test compounds were prepared at 3 mM in DMSO. Dosing solutions were prepared in the permeability assay buffer at 10 μm. The permeability assay buffer was Hank's balanced salt solution containing 10 mM HEPES at a pH of 7.4±0.2.
(§10) The Caco-2 cells were dosed with the test compounds on either apical side (for A-to-B permeation) or basolateral side (for B-to-A permeation) and incubated at 37° C. with 5% CO2 and 90% relative humidity. The testing for each compound was performed in duplicate. After 2 hour incubation, a 20-μL sample was taken from each of dosing solutions and both donor and receiver compartments. To ensure the validity of the Caco-2 assay, propranolol and vinblastine were used as a high- and a low- to medium-permeability positive control, respectively. Vinblastine also served as a P-gp substrate, tested in conjunction with a P-gp inhibitor, verapamil.
(§11) To quantify test compounds by LC/MS/MS, a related geldanamycin-like compound, 17-methoxyethylamino geldanamycin (Schnur et al., 1995), was used as the internal standard. The calculation of permeability of each compound involved only the concentration ratio of the same test compound, the concentration ratio was expressed in the peak area ratio of the test compound to the internal standard. The peak area ratio of each compound was derived by LC-MS/MS.
(§12) The apparent permeability coefficient Papp was calculated as below: […]
(§13) dCr: cumulative concentration in the receiver compartment in M. dt: duration of the assay (i.e., 7200 seconds). Vr: volume of the receiver compartment in cm^3. A: area of the cell monolayer (0.31 cm^2 for 24-well BioCoat™ plate). C0: concentration of the dosing solution in M.
(§14) The in vitro permeability of 20 and the parent 17 were assayed using caco-2 cells, as described in the general methods. All compounds were analysed at a concentration of 10 uM.

Caco-2 cells = test: In vitro Caco-2 assay for cell permeability; format: in vitro ADME; conditions: 10 uM, 2 hour incubation
Procedure: as §8, §9, §10, §11, §12, §13, §14

CNXF 498NL = test: Monolayer proliferation assay (modified propidium iodide), CNXF 498NL; format: cell-based, human; conditions: average of 2 experiments
Procedure: as §1, §2, §3, §4
as §5, with “Compounds were applied in two concentrations (0.001 mM and 0.01 mM).” left out
as §6, §7

For CO[C@H]1C[C@H](C)Cc2cc(cc(OP(=O)(O)O)c2)NC(=O)/C(C)=C/CC[C@H](C)[C@@H](OC(N)=O)/C(C)=C/[C@H](C)[C@H]1O [Compound 20, 4,5-dihydro-11-O-demethyl-15-demethoxy-18,21-didehydro-21-deoxomacbecin-18-phosphate], the “average IC70 value across the cell-line panel” value [1] was 0.344 µg/mL, the “Test/Control (%) at drug concentration (μg/mL)” value (“Test/Control (%)” below) (MCF-7; MCF-7, 0.01 μg/mL) was 98% and the “Test/Control (%)” value (MCF-7; MCF-7, 0.1 μg/mL) was 38%. For the same compound, the “Test/Control (%)” value (MCF-7; MCF-7, 1 μg/mL) was 14%, the “Test/Control (%)” value (MCF-7; MCF-7, 10 μg/mL) was 13% and the “Test/Control (%)” value (MCF-7; MCF-7, 100 μg/mL) was 9%. It also gave an efflux ratio at 2 h, 10 uM ([2]; read-out: Efflux ratio Papp(B → A)/Papp(A → B)) of 0.7, a Papp A→B at 2 h, 10 uM ([2]; read-out: Permeability Apical to Basolateral Papp(A → B) Mean) of 0.49 ×10⁻⁶ cm/s and a Papp A→B at 2 h, 10 uM ([2]; read-out: Permeability Apical to Basolateral Papp(A → B) Rep. 1) of 0.67 ×10⁻⁶ cm/s. For the same compound, the Papp A→B at 2 h, 10 uM ([2]; read-out: Permeability Apical to Basolateral Papp(A → B) Rep. 2) was 0.31 ×10⁻⁶ cm/s, the Papp B→A at 2 h, 10 uM ([2]; read-out: Permeability Basolateral to Apical Papp(B → A) Mean) was 0.35 ×10⁻⁶ cm/s and the Papp B→A at 2 h, 10 uM ([2]; read-out: Permeability Basolateral to Apical Papp(B → A) Rep. 1) was 0.22 ×10⁻⁶ cm/s. For the same compound, the Papp B→A at 2 h, 10 uM ([2]; read-out: Permeability Basolateral to Apical Papp(B → A) Rep. 2) was 0.48 ×10⁻⁶ cm/s, the “Efflux Limited” value (Caco-2 cells) was “No” and the “Test/Control (%)” value (CNXF 498NL; 0.01 μg/mL) was 99%. The “Test/Control (%)” value (CNXF 498NL; 0.1 μg/mL) was 77%, the “Test/Control (%)” value (CNXF 498NL; 1 μg/mL) was 15% and the “Test/Control (%)” value (CNXF 498NL; 10 μg/mL) was 16%. For the same compound, the “Test/Control (%)” value (CNXF 498NL; 100 μg/mL) was 12%.
